The numbers were not newly measured in patent US10543293B2, “Medical dressing” (BSN MEDICAL GMBH, priority 2013, dated 2020), which cites them from elsewhere.

The test system of one data set is endothelial cells. The conditions noted are these: NO concentrations employed in vitro; human endothelial cells.
The conditions of data set [1]: generally assumed.
A further data set relates to keratinocytes. The note with it: NO concentrations employed in vitro; human keratinocytes.
For another data set, the system named is human fibroblasts. The note with it: NO concentrations employed in vitro.

As to `[N]=O` [NO, nitric oxide], the toxic effects result in the data set on endothelial cells, in the data set on keratinocytes and with human fibroblasts was “did not display any toxic effects” in each case. Also, the “maximum solubility of NO in aqueous solutions” value in data set [1] is reported as “approximately 2 mM”. Besides, the “diffusion coefficient of NO relative to oxygen or carbon monoxide” value (at 37° C., higher than that of oxygen or carbon monoxide) is given as “approximately 1.4 times”. In addition, the “diffusion path that can be achieved in the tissues” value (calculated on the basis of the diffusion coefficient) is 500 μm.
